The record followed here is the NIST ThermoML archive (doi:10.1016/j.jct.2005.03.011).

Numbers after ± are expanded uncertainties.

For the data set the following is noted: Crystal; for mass density: 298 K, 101.33 kPa, Pycnometric method; for Normal melting temperature: DTA.

As a reminder, the mass density is the mass of a sample divided by its volume. For `Clc1ccc2ccccc2n1` [2-chloroquinoline], the mass density stood at 1246 ± 2 kg/m3 and the Normal melting temperature was 38.4 ± 0.5 °C.
`Clc1ccc2c(Cl)ccnc2c1` [4,7-dichloroquinoline]: the Normal melting temperature is 92.4 ± 0.5 °C.
For the compound `Clc1ccnc2ccccc12` [4-chloroquinoline], the mass density was 1251 ± 2 kg/m3 and the Normal melting temperature stood at 35 ± 0.5 °C.
`Clc1ccc2ncccc2c1` [6-chloroquinoline]: the Normal melting temperature is 46 ± 0.5 °C.
